Measured values reported in patent publication EP1263420B1 (priority 2000, dated 2001).
Entries after “also recorded” stand apart in the source; their conditions may differ.

How the values were obtained:
[1] = system: RAR γ; assay: Western blot of rat lung tissue after inhaled 13-cis RA; type: in vivo; details: for upregulating expression of lung tissue RAR (γ): daily deposited dose of 6.4mg/kg/day
Protocol: (§1) Rats (n=97) (Sprague-Dawley from Charles River) were divided into five experimental groups and were given varying amounts of 13-cis RA by inhalation. The experimental groups were as follows (Table 4) :1.Vehicle (10/9 mix of PEG 300 and Ethanol with 0.5% of ascorbic acid and 0.5% phosphatidyl choline) control, day 1: rats (19) inhaled vehicle for 2 hr for one day; 2. High dose 13-cis RA, day 1: rats (22) inhaled a solution containing 13-cis-RA at a concentration of 104µg/liter (projected daily inhaled dose 10mg/kg body weight) for 2 hr for one day; 3. High dose 13-cis RA, day 17: rats (22) inhaled the same solution as in 2 for 2 hr each day for 17 days; 4. Vehicle control, day 28: rats (16) inhaled vehicle as for group 1 for a period of 28 days; 5. Middle dose 13-cis RA, day 28: rats (18) inhaled a solution containing 13-cis-RA at a concentration of 31µg/liter (projected daily inhaled dose 3mg/kg body weight) for 2 hr for each of 28 days.
(§2) Male rats (n=23) (Sprague-Dawley from Charles River) were divided into six experimental groups and were given varying amounts of 13-cis RA through an inhalant apparatus once daily for different times each day for 14 days. The experimental groups were as follows (Table 1) :1.Vehicle control : rats (3) inhaled vehicle for 240 minutes; 2. Low dose 13-cis RA: rats (4) inhaled a solution containing 13-cis RA at a concentration of 62.2µg/liter (inhaled dose 115.0µg/kg body weight) in 5 minutes; 3. Low-Middle dose 13-cis RA : rats (4) inhaled a solution containing 13-cis RA at a concentration of 62.2µg/liter (inhaled dose 334.4µg/kg body weight) in 15 minutes; 4.Middle dose 13-cis RA: rats (4) inhaled a solution containing 13-cis RA at a concentration of 62.2µg/liter (inhaled dose 1012.3µg/kg body weight) in 45 minutes; 5. Middle-High dose 13-cis RA : rats (4) inhaled a solution containing 13-cis RA at a concentration of 62.2µg/liter (inhaled dose 2843.4µg/kg body weight) in 120 minutes; 6. High dose 13-cis RA : rats (4) inhaled a solution containing 13-cis RA at a concentration of 62.2µg/liter (inhaled dose 5935.6µg/kg body weight) in 240 minutes.
(§3) Polyclonal rabbit anti-mouse antibodies against RAR, and (SANTA CRUZ Biotechnology Inc., San Francisco, CA) were used. BM Chemiluminescense Western Blotting Kit (Mouse/Rabbit) was used (Boehringer Mannheim Corporation, Indianapolis) for the Westerns.
(§4) Tissues were collected, frozen in dry ice and kept at -70°C until used. 500mg aliquots were diced in small pieces and homogenized in 300µl of cold PBS, using the hand held homogenizer for 2~3 minutes. Sample and washes were centrifuged at 5000xg for 20 minutes. The pellet was suspended in 400 µl of ice-cold Buffer A [2µl 0.5M EDTA, 10µl 100mM EGTA, 50µl 100mM PMSF, 10µl 1M DTT, 10ml (10mM HEPES pH 7.9 + 10mM KCl)], and left at ice temperature for 15 minutes. 25 µl of 10% solution of NP-40 was added and samples were mixed in a vortex vigorously for 10 seconds. Samples were centrifuged at 14,000xg for 1 minute at 4°C and the pellet treated once more in this fashion (resuspended etc.). The supernatant was removed and 100µl of ice-cold Buffer C [4µl 0.5M EDTA, 20µl 100mM EGTA, 20µl 100mM PMSF, 2µl 1 M DTT, 2ml (20mM HEPES pH 7.9 + 0.4M NaCl)] was added. Pellets were resuspended by tapping gently on the bottom of the Eppendorf tubes. Samples were rocked vigorously in a bucket of ice on an orbital shaker for 30 minutes. Samples were centrifuged at 14,000 xg for 5 minutes at 4°C. Protein determination of supernatant was conducted by the Bradford method.
(§5) Samples were prepared by adding one part of the Sample Buffer to one part of the sample and mixing well. Samples were heated at 95°C for 5 minutes to induce denaturation. 5µl of Rainbow Standard and 5µl ofBiotinylated Molecular Marker were added to parallel wells. 20µg protein per sample was loaded in each lane. Electrophoresis was performed with voltage set at 125V for about 1 ~ 1.5 hours. Gel transfer was executed at 25V for 2 hours. […]

[2] = system: RAR β; assay: as above; type: in vivo; details: for upregulating expression of lung tissue RAR (β): daily deposited dose of 6.4mg/kg/day
Protocol: as §1, §2, §3, §4, §5

[3] = system: RAR α; assay: as above; type: in vivo; details: for upregulating expression of lung tissue RAR (α): daily deposited dose of 6.4mg/kg/day
Protocol: as §1, §2, §3, §4, §5

[4] = system: liver RARs; assay: Western blot of rat liver samples after inhaled 13-cis RA; type: in vivo
Protocol: as §1
as §2, with “minutes. […]” for “minutes.”

[5] = system: lung metaplasia; details: Oral doses of I mg/kg, smokers; cited from earlier work
[6] = daily deposited dose of 1.9mg/kg/day, day 28

CC1=C(/C=C/C(C)=C/C=C/C(C)=C\C(=O)O)C(C)(C)CCC1 [13-cis RA, 13-cis-Retinoic Acid]
lung RAR (γ) induced [1, 6]: 8.1 fold | upregulating expression of lung tissue RAR (γ) ([1]; day 1): 9.7 fold | upregulating expression of lung tissue RAR (γ) ([1]; day 17): 12.9 fold | lung RAR (β) induced [2, 6]: 8.0 fold | upregulating expression of lung tissue RAR (β) ([2]; day 1): 7.2 fold | upregulating expression of lung tissue RAR (β) ([2]; day 17): 10.0 fold | lung RAR (α) induced [3, 6]: 4.7 fold | upregulating expression of lung tissue RAR (α) ([3]; day 1): 3.4 fold | upregulating expression of lung tissue RAR (α) ([3]; day 17): 4.2 fold | effect on liver RARs ([4]; inhaled 13-cis RA, rats, summary statement): failed to have any significant effect on liver RARs; also recorded: has no effect on liver RARs | increase in liver RARs ([4]; rat liver, experiment A (same rats as Fig 2A), not shown): failed to show any increase in RARs | response of liver RARs ([4]; rat liver, experiment B, 5 to 240 minutes daily, 14 days, not shown): not responsive | reversal of lung metaplasia [5]: failed even to reverse lung metaplasia
